This note sets out measurements from article PMC5845869 (Frontiers in Microbiology, 2018).

Molecules are shown by their SMILES.

Type in all cases: cell-based
Experiment [1] deals with Candida parapsilosis CBS 604. The experiment can be described thus: Checkerboard microdilution, rNFAP2 with FLC, RPMI 1640. The note with it: rNFAP2 combined with FLC; RPMI 1640, 10^3 cells ml^−1, 48 h, 35°C. As to the method:
(§1) Antifungal synergism between rNFAP2 and FLC were investigated using the checkerboard microdilution method (Eliopoulos and Moellering, [1996]) in RPMI 1640 medium applying the drug stock preparation method and cultivation conditions described in CLSI-M27A3 document (Clinical and Laboratory Standards Institute, [2008]). […] The fractional inhibitory concentration index (FICI) as a measure of synergism and antagonism was calculated (Johnson et al., [2004]). Synergism was defined as FICI≤0.5, indifference as 0.5 < FICI ≤ 4 and antagonism was defined when FICI > 4 (Odds, [2003]).
(§2) LCM plates were incubated at 30°C, while RPMI 1640 plates at 35°C for 48 h without shaking, then the absorbance (OD620) was measured with a microtiter plate reader (SPECTROstar Nano, BMG Labtech, Ortenberg, Germany) after resuspension of the cultures with pipette. The absorbance of the untreated control cultures was referred to 100% growth in each case.
(§3) All susceptibility tests were repeated at least two times in three replicates.

Experiment [2] deals with Candida albicans ATCC 10231. The experiment is described as above. The note with it: rNFAP2 combined with FLC; RPMI 1640, 10^3 cells ml^−1, 48 h, 35°C. As to the method:
as §1, §2, §3

Another experiment deals with Candida krusei CBS 573. In words: MIC, CLSI-M27A3 broth microdilution in RPMI 1640. Particulars: Pichia kudriavzevii, CBS573, 48 h, pH 7; read-out: MIC of the drug alone (a). As to the method: (§4) Susceptibility tests were performed in low ionic strength broth medium (LCM: 0.5% glucose, 0.25% yeast extract, 0.0125% peptone (w/v)) and in RPMI 1640 medium (Sigma-Aldrich, St Louis, MO, USA) supplemented with 0.03% (w/v) L-glutamine and buffered to pH 7.0 with 0.165 M 4-morpholinopropanesulfonic acid (Sigma-Aldrich, St Louis, MO, USA).
(§5) The CLSI-M27A3 broth microdilution method (Clinical and Laboratory Standards Institute, [2008]) was applied to determinate the minimal inhibitory concentrations (MIC) of FLC (Sigma-Aldrich, St Louis, MO, USA) and rNFAP2 against the Candida isolates (10^3 cells ml^−1) under clinically approved test conditions. For this experiment, the rNFAP2 stock was prepared in bidistilled water, and FLC in dimethyl sulfoxide (DMSO). The investigated concentration range was 64–0.0625 μg ml^−1 for FCL and 100–0.39 μg ml^−1 for rNFAP2.
as §2, §3

For experiment [3], the system named is Candida parapsilosis CBS 604. The experiment can be described thus: MIC, CLSI-M27A3 broth microdilution in RPMI 1640. Particulars: Lodderomyces parapsilosis, CBS604, 48 h, pH 7; read-out: MIC of the drug alone (a). As to the method:
as §4, §5, §2, §3
On the technique in general: Dilution methods test growth across graded concentrations, often in twofold steps.

Experiment [4] concerns Candida albicans ATCC 10231. The experiment can be described thus: MIC, CLSI-M27A3 broth microdilution in RPMI 1640. Particulars: Candida albicans, ATCC10231, 48 h, pH 7; read-out: MIC of the drug alone (a). The procedure:
as §4, §5, §2, §3

With `OC(Cn1cncn1)(Cn1cncn1)c1ccc(F)cc1F` [FLC, fluconazole, reference compound], the “MIC of the drug in combination (c)” value in experiment [1] was determined as 1 µg/mL; in experiment [2], 0.25 µg/mL. In addition, the values for the minimum inhibitory concentration (MIC) (in the experiment on Candida krusei CBS 573; in experiment [3]; in experiment [4]) were 64 µg/mL, 8 µg/mL and 1 µg/mL, respectively.

The term MIC denotes the lowest concentration that inhibits growth of the organism.
